Test results taken from patent US7615569B2, “Inhibitors of ion channels” (Icagen, Inc., priority 2005, dated 2009).

Tests used:
[1] = target: Nav1.9 (Homo sapiens, UniProt Q9UI33); conditions: read-out: TTX IC-50; cited from earlier work
[2] = target: Nav1.8 (Homo sapiens, UniProt Q9Y5Y9); conditions: read-out: TTX IC-50; cited from earlier work
[3] = target: Nav1.1 (Homo sapiens, UniProt P35498); conditions: read-out: TTX IC-50; cited from earlier work
[4] = target: Nav1.2 (Homo sapiens, UniProt Q99250); conditions: read-out: TTX IC-50; cited from earlier work
[5] = target: Nav1.3 (Homo sapiens, UniProt Q9NY46); conditions: read-out: TTX IC-50; cited from earlier work
[6] = target: Nav1.6 (Homo sapiens, UniProt Q9UQD0); conditions: read-out: TTX IC-50; cited from earlier work
[7] = target: T1, hSCN3A (Homo sapiens, UniProt Q9NY46); assay: SCN3A inhibitory activity in HEK cells stably expressing hSCN3A (whole-cell patch clamp / radiotracer efflux HTS); type: cell-based; conditions: HEK cells stably transfected with hSCN3A
T1 construct: expressed in transfected cells

[8] = cited from earlier work

T1 sequence (Q9NY46 whole entry): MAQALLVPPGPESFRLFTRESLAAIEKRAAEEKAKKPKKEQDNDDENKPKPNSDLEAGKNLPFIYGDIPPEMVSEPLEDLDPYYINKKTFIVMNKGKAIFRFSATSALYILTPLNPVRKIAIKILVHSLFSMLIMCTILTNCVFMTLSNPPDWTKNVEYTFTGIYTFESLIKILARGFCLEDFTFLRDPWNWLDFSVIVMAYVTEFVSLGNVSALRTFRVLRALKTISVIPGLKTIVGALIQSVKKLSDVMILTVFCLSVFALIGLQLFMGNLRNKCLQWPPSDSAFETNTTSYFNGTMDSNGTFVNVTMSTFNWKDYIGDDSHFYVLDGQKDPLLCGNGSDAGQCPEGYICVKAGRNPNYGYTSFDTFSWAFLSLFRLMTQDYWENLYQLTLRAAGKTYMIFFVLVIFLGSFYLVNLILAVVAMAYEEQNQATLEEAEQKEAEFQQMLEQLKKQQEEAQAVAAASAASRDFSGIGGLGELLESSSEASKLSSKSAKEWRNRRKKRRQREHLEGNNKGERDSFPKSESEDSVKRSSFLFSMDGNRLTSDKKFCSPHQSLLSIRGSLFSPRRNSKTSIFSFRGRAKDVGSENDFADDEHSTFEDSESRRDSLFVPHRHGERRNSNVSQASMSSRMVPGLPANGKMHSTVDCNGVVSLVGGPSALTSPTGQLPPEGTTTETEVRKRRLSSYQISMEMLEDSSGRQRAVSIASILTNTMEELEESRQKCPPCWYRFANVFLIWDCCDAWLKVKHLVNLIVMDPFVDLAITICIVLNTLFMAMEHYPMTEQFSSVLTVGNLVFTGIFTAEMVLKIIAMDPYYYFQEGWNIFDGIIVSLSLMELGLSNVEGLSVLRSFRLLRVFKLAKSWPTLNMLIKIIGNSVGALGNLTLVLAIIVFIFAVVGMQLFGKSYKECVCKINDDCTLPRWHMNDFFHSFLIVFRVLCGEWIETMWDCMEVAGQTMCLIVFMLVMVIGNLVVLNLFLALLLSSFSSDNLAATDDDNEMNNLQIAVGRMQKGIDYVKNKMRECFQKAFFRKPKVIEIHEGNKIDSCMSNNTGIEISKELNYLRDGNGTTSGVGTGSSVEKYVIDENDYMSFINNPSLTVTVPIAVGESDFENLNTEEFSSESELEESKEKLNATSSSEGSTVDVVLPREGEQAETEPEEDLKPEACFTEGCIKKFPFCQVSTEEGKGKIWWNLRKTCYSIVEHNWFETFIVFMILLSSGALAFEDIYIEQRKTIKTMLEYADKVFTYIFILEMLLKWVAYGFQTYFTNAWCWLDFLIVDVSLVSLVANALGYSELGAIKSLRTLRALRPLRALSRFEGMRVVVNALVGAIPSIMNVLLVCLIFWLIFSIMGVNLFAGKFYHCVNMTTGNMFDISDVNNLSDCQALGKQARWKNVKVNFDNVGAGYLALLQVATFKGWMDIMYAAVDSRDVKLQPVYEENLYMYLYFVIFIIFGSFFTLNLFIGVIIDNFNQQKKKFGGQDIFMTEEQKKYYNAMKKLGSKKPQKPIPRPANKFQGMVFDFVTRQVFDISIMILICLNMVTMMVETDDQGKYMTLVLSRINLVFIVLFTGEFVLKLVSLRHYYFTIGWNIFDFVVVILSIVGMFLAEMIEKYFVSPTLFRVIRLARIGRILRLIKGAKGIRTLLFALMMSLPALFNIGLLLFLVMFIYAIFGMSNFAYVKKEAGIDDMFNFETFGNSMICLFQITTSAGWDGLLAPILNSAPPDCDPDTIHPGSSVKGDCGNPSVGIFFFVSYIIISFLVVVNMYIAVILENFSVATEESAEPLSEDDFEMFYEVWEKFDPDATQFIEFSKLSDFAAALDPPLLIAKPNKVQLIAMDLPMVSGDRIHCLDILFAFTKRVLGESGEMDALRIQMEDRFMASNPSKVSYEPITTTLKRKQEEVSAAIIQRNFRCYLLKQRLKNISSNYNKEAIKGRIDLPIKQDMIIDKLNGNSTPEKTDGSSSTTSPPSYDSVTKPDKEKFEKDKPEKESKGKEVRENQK
Chain of Nav1.8 (Q9Y5Y9 whole entry, looked up): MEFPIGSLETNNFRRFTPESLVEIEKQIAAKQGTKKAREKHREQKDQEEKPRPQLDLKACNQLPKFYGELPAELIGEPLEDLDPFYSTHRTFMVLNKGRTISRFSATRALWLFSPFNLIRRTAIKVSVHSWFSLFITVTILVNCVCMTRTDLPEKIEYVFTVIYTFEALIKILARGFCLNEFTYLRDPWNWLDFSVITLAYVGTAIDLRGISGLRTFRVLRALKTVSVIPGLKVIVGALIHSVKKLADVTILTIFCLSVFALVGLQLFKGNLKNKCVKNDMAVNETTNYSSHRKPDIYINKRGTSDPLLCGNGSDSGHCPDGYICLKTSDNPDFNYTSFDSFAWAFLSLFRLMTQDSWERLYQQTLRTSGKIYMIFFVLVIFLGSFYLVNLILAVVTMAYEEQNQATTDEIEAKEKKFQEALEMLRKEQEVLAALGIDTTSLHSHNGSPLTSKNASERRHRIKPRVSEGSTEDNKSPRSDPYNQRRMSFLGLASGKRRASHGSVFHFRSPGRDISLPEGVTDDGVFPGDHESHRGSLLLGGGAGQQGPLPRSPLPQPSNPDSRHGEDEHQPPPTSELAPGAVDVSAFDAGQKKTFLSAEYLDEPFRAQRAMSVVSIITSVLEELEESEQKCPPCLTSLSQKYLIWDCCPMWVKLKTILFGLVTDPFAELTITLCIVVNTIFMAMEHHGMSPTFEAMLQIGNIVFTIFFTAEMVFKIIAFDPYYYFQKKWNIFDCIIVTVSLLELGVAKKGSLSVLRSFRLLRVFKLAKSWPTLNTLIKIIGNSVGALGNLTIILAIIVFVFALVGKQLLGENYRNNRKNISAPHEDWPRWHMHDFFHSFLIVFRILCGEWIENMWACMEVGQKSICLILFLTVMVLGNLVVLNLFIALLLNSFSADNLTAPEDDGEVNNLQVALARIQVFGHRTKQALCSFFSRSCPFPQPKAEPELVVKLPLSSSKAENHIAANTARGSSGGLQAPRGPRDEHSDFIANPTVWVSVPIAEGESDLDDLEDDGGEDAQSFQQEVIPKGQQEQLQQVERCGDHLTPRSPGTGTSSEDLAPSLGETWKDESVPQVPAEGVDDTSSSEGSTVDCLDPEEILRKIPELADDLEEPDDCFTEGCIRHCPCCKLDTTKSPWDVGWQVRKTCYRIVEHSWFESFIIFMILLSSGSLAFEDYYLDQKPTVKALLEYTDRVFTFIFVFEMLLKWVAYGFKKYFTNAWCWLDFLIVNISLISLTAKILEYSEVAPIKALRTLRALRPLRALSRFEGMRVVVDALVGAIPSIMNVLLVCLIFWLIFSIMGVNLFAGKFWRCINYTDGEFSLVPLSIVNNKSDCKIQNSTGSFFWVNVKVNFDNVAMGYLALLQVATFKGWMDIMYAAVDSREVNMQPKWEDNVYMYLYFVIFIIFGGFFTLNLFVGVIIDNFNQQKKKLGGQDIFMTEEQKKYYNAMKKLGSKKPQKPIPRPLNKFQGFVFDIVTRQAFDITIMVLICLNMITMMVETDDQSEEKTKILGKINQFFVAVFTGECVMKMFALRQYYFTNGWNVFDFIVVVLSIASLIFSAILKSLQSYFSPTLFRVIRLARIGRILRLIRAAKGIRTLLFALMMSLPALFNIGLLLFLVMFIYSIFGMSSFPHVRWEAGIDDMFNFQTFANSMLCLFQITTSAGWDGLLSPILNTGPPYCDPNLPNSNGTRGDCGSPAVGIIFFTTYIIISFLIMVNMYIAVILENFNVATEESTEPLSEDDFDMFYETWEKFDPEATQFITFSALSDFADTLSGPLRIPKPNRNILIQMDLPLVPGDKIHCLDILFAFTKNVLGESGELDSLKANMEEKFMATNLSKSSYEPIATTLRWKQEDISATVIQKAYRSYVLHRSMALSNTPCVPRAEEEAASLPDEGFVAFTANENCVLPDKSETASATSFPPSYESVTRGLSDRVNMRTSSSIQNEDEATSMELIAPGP
Chain of Nav1.3 (Q9NY46 whole entry, looked up): as the sequence (Q9NY46 whole entry) above

Row | SMILES | IC50 [7] | also measured
1 | NC1=N[C@H](O)[C@H]2[C@H]3O[C@]4(O)O[C@@H]([C@@H](O)[C@@]2(N1)[C@@H]4O)[C@]3(O)CO [TTX, tetrodotoxin] |  | IC50 [1]: 1 µM; IC50 [2]: 50 µM; IC50 [3]: 0.01 µM; IC50 [4]: 0.01 µM; IC50 [5]: 0.015 µM; IC50 [6]: 0.006 µM
2 | O=S(=O)(Nc1nccs1)c1ccc(-c2nc(CCc3ccc(F)cc3)c[nH]2)cc1 [Compound 15, 4-{4-[2-(4-Fluoro-phenyl)-ethyl]-1H-imidazol-2-yl}-N-thiazol-2-yl-benzenesulfonamide] | 0.1 to 0.5 µM | 
3 | CS(=O)(=O)c1ccc(Cc2c[nH]c(-c3ccc(S(=O)(=O)Nc4nccs4)cc3)n2)cc1 [Compound 54, 4-[4-(4-Methanesulfonyl-benzyl)-1H-imidazol-2-yl]-N-thiazol-2-yl-benzenesulfonamide] | > 1 µM | 
4 | O=S(=O)(Nc1nccs1)c1ccc(-c2nnc(COc3ccc(C(F)(F)F)cn3)[nH]2)cc1 [Compound 118, N-thiazol-2-yl-4-[5-(5-trifluoromethyl-pyridin-2-yloxymethyl)-4H-[1,2,4]triazol-3-yl]-benzenesulfonamide] | > 1 µM | 
5 | O=S(=O)(Nc1nccs1)c1ccc(-c2nc(C3(c4ccc(Cl)cc4)CCC3)c[nH]2)cc1 [Compound 25, 4-{4-[1-(4-Chloro-phenyl)-cyclobutyl]-1H-imidazol-2-yl}-N-thiazol-2-yl-benzenesulfonamide] | 0.1 to 0.5 µM | 
6 | O=S(=O)(Nc1nccs1)c1ccc(-c2nnc(Cc3cccc(Cl)c3)[nH]2)cc1 [Compound 96, 4-[5-(3-Chloro-benzyl)-4H-[1,2,4]triazol-3-yl]-N-thiazol-2-yl-benzenesulfonamide] | 0.1 to 0.5 µM | 
7 | O=S(=O)(Nc1nccs1)c1ccc(-c2nc(CCc3ccccc3Cl)c[nH]2)cc1 [Compound 14, 4-{4-[2-(2-Chloro-phenyl)-ethyl]-1H-imidazol-2-yl}-N-thiazol-2-yl-benzenesulfonamide] | 0.1 to 0.5 µM | 
8 | O=S(=O)(Nc1nccs1)c1ccc(-c2nnc(C(c3ccccc3)c3ccccc3)[nH]2)cc1 [Compound 3, 4-(5-Benzhydryl-4H-[1,2,4]triazol-3-yl)-N-thiazol-2-yl-benzenesulfonamide] | 0.1 to 0.5 µM | 
9 | O=S(=O)(Nc1nccs1)c1ccc(-c2ncc(Cc3ccc(Cl)cc3)[nH]2)cc1 [Compound 8, 4-[5-(4-Chloro-benzyl)-1H-imidazol-2-yl]-N-thiazol-2-yl-benzenesulfonamide] | 0.1 to 0.5 µM | 
10 | O=S(=O)(Nc1nccs1)c1ccc(-c2nc(-c3ccccc3)c(-c3ccccc3)[nH]2)cc1 [Compound 1, 4-(4,5-Diphenyl-1H-imidazol-2-yl)-N-thiazol-2-yl-benzenesulfonamide] | 0.1 to 0.5 µM | 
11 | O=S(=O)(Nc1nccs1)c1ccc(-c2nnc(COc3ncc(Cl)cc3Cl)[nH]2)cc1 [Compound 120, 4-[5-(3,5-Dichloro-pyridin-2-yloxymethyl)-4H-[1,2,4]triazol-3-yl]-n-thiazol-2-yl-benzenesulfonamide] | > 1 µM | 
12 | O=S(=O)(Nc1nccs1)c1ccc(-c2nc(Cc3ccc(F)cc3Cl)c[nH]2)cc1 [Compound 13, 4-[4-(2-Chloro-4-fluoro-benzyl)-1H-imidazol-2-yl]-N-thiazol-2-yl-benzenesulfonamide] | < 0.1 µM | 
13 | NCC1(CC(=O)O)CCCCC1 [gabapentin] |  | patients respond to gabapentin treatment for neuropathic pain [8]: 30%
14 | O=S(=O)(Nc1nccs1)c1ccc(-c2nc(COc3c(Cl)cccc3Cl)n[nH]2)cc1 [Compound 119, 4-[5-(2,6-Dichloro-phenoxymethyl)-2H-[1,2,4]triazol-3-yl]-n-thiazol-2-yl-benzenesulfonamide] | > 1 µM | 
15 | O=S(=O)(Nc1nccs1)c1ccc(NCC(c2ccccc2)c2ccccc2)nc1 [Compound 124, 6-(2,2-Diphenyl-ethylamino)-pyridine-3-sulfonic acid thiazol-2-ylamide] | 0.5 to 1 µM | 
16 | Cc1ccc(C)c(CCc2c[nH]c(-c3ccc(S(=O)(=O)Nc4nccs4)cc3)n2)c1 [Compound 29, 4-{4-[2-(2,5-Dimethyl-phenyl)-ethyl]-1H-imidazol-2-yl}-N-thiazol-2-yl-benzenesulfonamide] | 0.1 to 0.5 µM | 
17 | Cc1ccc(Cc2c[nH]c(-c3ccc(S(=O)(=O)Nc4nccs4)cc3)n2)cc1 [Compound 32, 4-[4-(4-Methyl-benzyl)-1H-imidazol-2-yl]-N-thiazol-2-yl-benzenesulfonamide] | > 1 µM | 
18 | O=S(=O)(Nc1nccs1)c1ccc(-c2nc(CCCOc3ccc(Cl)cc3Cl)c[nH]2)cc1 [Compound 11, 4-{4-[3-(2,4-Dichloro-phenoxy)-propyl]-1H-imidazol-2-yl}-N-thiazol-2-yl-benzenesulfonamide] | < 0.1 µM | 
19 | O=S(=O)(Nc1nccs1)c1ccc(-c2nc(Cc3ccc(Oc4ccccc4)cc3)c[nH]2)cc1 [Compound 42, 4-[4-(4-Phenoxy-benzyl)-1H-imidazol-2-yl]-N-thiazol-2-yl-benzenesulfonamide] | < 0.1 µM | 
